According to patent US9695155B2, “Herbicidal substituted pyrimidinyloxy benzene compounds” (E. I. DU PONT DE NEMOURS AND COMPANY, priority 2013, dated 2017):

Experiments:
barnyardgrass [1] = test: Test A preemergence; type: in vivo, Echinochloa crus-galli
Summary of the method: (§1)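 Pre- and postemergence greenhouse screen. Soil: loam + sand. Spray carrier: solvent mixture, non-phytotoxic, with surfactant. Post timing at 1–2 leaves, height 2–10 cm. Readout: visual injury on a 0–100 scale roughly 10 days after application, untreated plants as reference.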

morningglory [2] = test: Test A preemergence; type: in vivo, Ipomoea spp.
Summary of the method: as §1

pigweed [3] = test: Test A preemergence; type: in vivo, Amaranthus retroflexus
Summary of the method: as §1

velvetleaf [4] = test: Test A preemergence; type: in vivo, Abutilon theophrasti
Summary of the method: as §1

morningglory [5] = test: Test A postemergence; type: in vivo, Ipomoea spp.
Summary of the method: as §1

wheat = test: Test A postemergence; type: in vivo, Triticum aestivum
Summary of the method: as §1

Heteranthera limosa = test: Test B flooded paddy test; type: in vivo; settings: Flood, 250 g ai/ha; 0 to 100 scale where 0 is no effect and 100 is complete control
Summary of the method: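 Plants were grown to the 2-leaf stage, then pots were flooded to 3 cm above the soil and compounds were applied directly into the paddy water. That depth was held throughout, and after 13 to 15 days in the greenhouse injury was rated visually against controls on a 0–100 scale (0 no effect, 100 complete control).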

blackgrass = test: Test C postemergence; type: in vivo, Alopecurus myosuroides; settings: for Plant response rating (0 to 100), Blackgrass: 0 is no effect, 100 is complete control; for Blackgrass plant response rating: 31 g ai/ha; for Blackgrass plant response rating / Plant response rating, Blackgrass: scale 0 to 100 (0 no effect, 100 complete control)
Summary of the method: (§2)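 Preemergence: seeds sown in a loam soil–sand blend and sprayed with test chemical in a non-phytotoxic solvent mixture containing surfactant. Postemergence: plants at 2 to 18 cm (1- to 4-leaf stage) in peat-based medium, treated with the same formulation. Greenhouse 13 to 15 days, then visual rating 0 (no effect) to 100 (complete control).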

morningglory [6] = test: Test C postemergence; type: in vivo, Ipomoea coccinea; settings: for Plant response rating (0 to 100), Morningglory: 0 is no effect, 100 is complete control; for Morningglory plant response rating: 31 g ai/ha; for Morningglory plant response rating / Plant response rating, Morningglory: scale 0 to 100 (0 no effect, 100 complete control)
Summary of the method: as §2

pigweed [7] = test: Test C postemergence; type: in vivo, Amaranthus retroflexus; settings: for Plant response rating (0 to 100), Pigweed: 0 is no effect, 100 is complete control; for Pigweed plant response rating: 31 g ai/ha; for Pigweed plant response rating / Plant response rating, Pigweed: scale 0 to 100 (0 no effect, 100 complete control)
Summary of the method: as §2

ragweed = test: Test C postemergence; type: in vivo, Ambrosia elatior; settings: for Plant response rating (0 to 100), Ragweed: 0 is no effect, 100 is complete control; for Ragweed plant response rating: 31 g ai/ha; for Ragweed plant response rating / Plant response rating, Ragweed: scale 0 to 100 (0 no effect, 100 complete control)
Summary of the method: as §2

barnyardgrass [8] = test: Test C postemergence; type: in vivo, Echinochloa crus-galli; settings: for Plant response rating (0 to 100), Barnyardgrass: 0 is no effect, 100 is complete control; for Barnyardgrass plant response rating: 31 g ai/ha, 13 to 15 days; for Barnyardgrass plant response rating / Plant response rating, Barnyardgrass: scale 0 to 100 (0 no effect, 100 complete control)
Summary of the method: as §2

kochia = test: Test C postemergence; type: in vivo, Kochia scoparia; settings: for Plant response rating (0 to 100), Kochia: 0 is no effect, 100 is complete control; for Kochia plant response rating: 31 g ai/ha; for Kochia plant response rating / Plant response rating, Kochia: scale 0 to 100 (0 no effect, 100 complete control)
Summary of the method: as §2

wild oat = test: Test C postemergence; type: in vivo, Avena fatua; settings: for Plant response rating (0 to 100), Oat, Wild: 0 is no effect, 100 is complete control; for Oat, Wild plant response rating: 31 g ai/ha; for Oat, Wild plant response rating / Plant response rating, Oat, Wild: scale 0 to 100 (0 no effect, 100 complete control)
Summary of the method: as §2

velvetleaf [9] = test: Test C postemergence; type: in vivo, Abutilon theophrasti; settings: for Plant response rating (0 to 100), Velvetleaf: 0 is no effect, 100 is complete control; for Velvetleaf plant response rating: 31 g ai/ha; for Velvetleaf plant response rating / Plant response rating, Velvetleaf: scale 0 to 100 (0 no effect, 100 complete control)
Summary of the method: as §2

[10] = 500 g ai/ha, 0 to 100 scale where 0 is no effect and 100 is complete control
[11] = 125 g ai/ha, 0 to 100 scale where 0 is no effect and 100 is complete control
[12] = postemergence, visual rating, 13 to 15 days
[13] = 125 g ai/ha, postemergence, visual rating
[14] = Postemergence, 62 g ai/ha, 13 to 15 days
[15] = 1000 g ai/ha, 0 to 100 scale, 0 no effect, 100 complete control, approx. 10 days
[16] = 1000 g ai/ha, 0 to 100 scale, 0 no effect, 100 complete control

Clc1cnc(Oc2cccc(Br)c2-n2cc(Cl)cn2)nc1 [Compound 221]
Barnyardgrass plant response rating (0 to 100 scale, 0 is no effect, 100 is complete control) (barnyardgrass [1]; 125 g ai/ha): 10 | Barnyardgrass plant response rating (barnyardgrass [1]; [10]): 90 | Morningglory plant response rating (0 to 100 scale) (morningglory [2]; 125 g ai/ha): 0 | Morningglory plant response rating (morningglory [2]; [10]): 10 | Pigweed plant response rating (0 to 100 scale) (pigweed [3]; 125 g ai/ha): 100 | Pigweed plant response rating (pigweed [3]; [10]): 100 | Velvetleaf plant response rating (0 to 100 scale) (velvetleaf [4]; 125 g ai/ha): 10 | Velvetleaf plant response rating (velvetleaf [4]; [10]): 70 | Morningglory plant response rating (morningglory [5]; [11]): 90 | Plant response rating, Morningglory (morningglory [5]; [10]): 100 | Wheat plant response rating (wheat; [11]): 0 | Plant response rating, Wheat (wheat; [10]): 30 | Plant response rating, Ducksalad (Heteranthera limosa): 0 | Plant response rating (0 to 100), Blackgrass (blackgrass; 16 g ai/ha, postemergence): 0 | Blackgrass plant response rating (blackgrass; [12]): 0 | Plant response rating, Blackgrass (blackgrass; [13]): 5 | Plant response rating, Blackgrass (blackgrass; [14]): 5 | Plant response rating (0 to 100), Morningglory (morningglory [6]; 16 g ai/ha, postemergence): 45 | Morningglory plant response rating (morningglory [6]; [12]): 40 | Plant response rating, Morningglory (morningglory [6]; [13]): 55 | Plant response rating, Morningglory (morningglory [6]; [14]): 50 | Plant response rating (0 to 100), Pigweed (pigweed [7]; 16 g ai/ha, postemergence): 60 | Pigweed plant response rating (pigweed [7]; [12]): 75 | Plant response rating, Pigweed (pigweed [7]; [13]): 85 | Plant response rating, Pigweed (pigweed [7]; [14]): 50 | Plant response rating (0 to 100), Ragweed (ragweed; 16 g ai/ha, postemergence): 5 | Ragweed plant response rating (ragweed; [12]): 5 | Plant response rating, Ragweed (ragweed; [13]): 10 | Plant response rating, Ragweed (ragweed; [14]): 20 | Plant response rating (0 to 100), Barnyardgrass (barnyardgrass [8]; 16 g ai/ha, postemergence): 5 | Barnyardgrass plant response rating (barnyardgrass [8]; postemergence, visual rating): 5 | Plant response rating, Barnyardgrass (barnyardgrass [8]; [13]): 10 | Plant response rating, Barnyardgrass (barnyardgrass [8]; Postemergence, 62 g ai/ha): 5 | Plant response rating (0 to 100), Kochia (kochia; 16 g ai/ha, postemergence): 90 | Kochia plant response rating (kochia; [12]): 80 | Plant response rating, Kochia (kochia; [13]): 95 | Plant response rating, Kochia (kochia; [14]): 95 | Plant response rating (0 to 100), Oat, Wild (wild oat; 16 g ai/ha, postemergence): 5 | Oat, Wild plant response rating (wild oat; [12]): 5 | Plant response rating, Oat, Wild (wild oat; [13]): 30 | Plant response rating, Oat, Wild (wild oat; [14]): 10 | Plant response rating (0 to 100), Velvetleaf (velvetleaf [9]; 16 g ai/ha, postemergence): 35 | Velvetleaf plant response rating (velvetleaf [9]; [12]): 35 | Plant response rating, Velvetleaf (velvetleaf [9]; [13]): 75 | Plant response rating, Velvetleaf (velvetleaf [9]; [14]): 45

Clc1cnc(Oc2ccccc2-n2cc(I)nn2)nc1 [Compound 222]
Barnyardgrass plant response rating (barnyardgrass [1]; [15]): 100 | Morningglory plant response rating (morningglory [2]; [15]): 100 | Pigweed plant response rating (pigweed [3]; [15]): 100 | Velvetleaf plant response rating (velvetleaf [4]; [15]): 100 | Plant response rating, Morningglory (morningglory [5]; [16]): 100 | Plant response rating, Wheat (wheat; [16]): 40 | Plant response rating, Ducksalad (Heteranthera limosa): 50 | Plant response rating (0 to 100), Blackgrass (blackgrass; 8 g ai/ha, postemergence): 0 | Plant response rating (0 to 100), Blackgrass (blackgrass; 16 g ai/ha, postemergence): 5 | Blackgrass plant response rating (blackgrass; [12]): 30 | Plant response rating, Blackgrass (blackgrass; [14]): 60 | Plant response rating (0 to 100), Morningglory (morningglory [6]; 8 g ai/ha, postemergence): 40 | Plant response rating (0 to 100), Morningglory (morningglory [6]; 16 g ai/ha, postemergence): 90 | Morningglory plant response rating (morningglory [6]; [12]): 45 | Plant response rating, Morningglory (morningglory [6]; [14]): 70 | Plant response rating (0 to 100), Pigweed (pigweed [7]; 8 g ai/ha, postemergence): 65 | Plant response rating (0 to 100), Pigweed (pigweed [7]; 16 g ai/ha, postemergence): 70 | Pigweed plant response rating (pigweed [7]; [12]): 80 | Plant response rating, Pigweed (pigweed [7]; [14]): 85 | Plant response rating (0 to 100), Ragweed (ragweed; 8 g ai/ha, postemergence): 20 | Plant response rating (0 to 100), Ragweed (ragweed; 16 g ai/ha, postemergence): 40 | Ragweed plant response rating (ragweed; [12]): 45 | Plant response rating, Ragweed (ragweed; [14]): 60 | Plant response rating (0 to 100), Barnyardgrass (barnyardgrass [8]; 8 g ai/ha, postemergence): 5 | Plant response rating (0 to 100), Barnyardgrass (barnyardgrass [8]; 16 g ai/ha, postemergence): 5 | Barnyardgrass plant response rating (barnyardgrass [8]; postemergence, visual rating): 10 | Plant response rating, Barnyardgrass (barnyardgrass [8]; Postemergence, 62 g ai/ha): 15 | Plant response rating (0 to 100), Kochia (kochia; 8 g ai/ha, postemergence): 60 | Plant response rating (0 to 100), Kochia (kochia; 16 g ai/ha, postemergence): 85 | Kochia plant response rating (kochia; [12]): 100 | Plant response rating, Kochia (kochia; [14]): 100 | Plant response rating (0 to 100), Oat, Wild (wild oat; 8 g ai/ha, postemergence): 5 | Plant response rating (0 to 100), Oat, Wild (wild oat; 16 g ai/ha, postemergence): 10 | Oat, Wild plant response rating (wild oat; [12]): 10 | Plant response rating, Oat, Wild (wild oat; [14]): 30 | Plant response rating (0 to 100), Velvetleaf (velvetleaf [9]; 8 g ai/ha, postemergence): 35 | Plant response rating (0 to 100), Velvetleaf (velvetleaf [9]; 16 g ai/ha, postemergence): 40 | Velvetleaf plant response rating (velvetleaf [9]; [12]): 35 | Plant response rating, Velvetleaf (velvetleaf [9]; [14]): 50
